Laboratory results published in paper PMC9453727 (Cell Discovery, 2022).

Experiments:
in vitro = conditions: PAMPA
[1] = in vivo, po; cited from earlier work
[2] = pH 5, permeability class PAMPA-GIT

Compound | Papp (in vitro; [2]) [×10⁻⁶ cm/s] | Papp (in vitro; pH 5, Papp PAMPA-GIT, pH 5.0) [×10⁻⁶ cm/s] | Papp (in vitro; pH 6.2, Papp PAMPA-GIT, pH 6.2) [×10⁻⁶ cm/s] | Papp (in vitro; pH 7.4, Papp PAMPA-GIT, pH 7.4) [×10⁻⁶ cm/s] | half-life [1]
Cc1cc(=O)n(-c2ccccc2)n1C [Antipyrine] | < 1 | – | – | – | –
NC(=O)N1c2ccccc2C=Cc2ccccc21 [Carbamazepine] | > 20 | 135 | 158 | 160 | –
CC(C)(C)[C@H](NC(=O)C(F)(F)F)C(=O)N1C[C@H]2[C@@H]([C@H]1C(=O)N[C@H](C#N)C[C@@H]1CCNC1=O)C2(C)C [nirmatrelvir] | – | – | – | – | ~ 2 h
